Assay results: paper PMC7912614, “(2-Aminobenzothiazole)-Methyl-1,1-Bisphosphonic Acids: Targeting Matrix Metalloproteinase 13 Inhibition to the Bone” (Pharmaceuticals, 2021)
Where two headings read alike, the source gives them in different places.

Columns and labels:
MMP-8 = target: T1, MMP-8 (Homo sapiens, UniProt P22894); assay: fluorometric MMP inhibition assay, MMP-8 catalytic domain; type: biochemical; settings: for Ligand Efficiency MMP-8: calculated from IC50 values of Table 2; for IC50: catalytic domain, fluorometric assay, mean ± SEM of at least 3 experiments
T1 construct: Catalytic domains of MMP-2, -8, -9, and -13 were obtained from Enzo Life Sciences; purchased Enzo Life Sciences
Method: (§1) Catalytic domains of MMP-2, -8, -9, and -13 were obtained from Enzo Life Sciences. 96-well white microtiter plates (Corning, NBS) were used to carry out the assays (in triplicate). The assay measurements were performed by preparing dilutions to six different concentrations (1 nM–100 µM) of each inhibitor in a fluorometric assay buffer (50 mM Tris·HCl pH 7.5, 200 mM NaCl, 1 mM CaCl2, 1 µM ZnCl2, 0.05% Brij-35, and 1% DMSO). Incubation of the enzyme and inhibitor solutions occurred for 15 min at room temperature; fluorogenic substrate solution (OmniMMP® = Mca-Pro-Leu-Gly-Leu-Dpa-Ala-Arg-NH2, Enzo Life Sciences, 2.5 µM final concentration or OmniMMP®RED = TQ3-GABA-Pro-Cha-Abu-Smc-His-Ala-Dab (6′-TAMRA)-Ala-Lys-NH2, Enzo Life Sciences, and 1 µM final concentration) was subsequently added. The assay was incubated for 2–4 h at 37 °C, after which a Perkin–Elmer Victor V3 plate reader was used to measure fluorescence (λex= 340 nm, λem = 405 nm or λex = 545 nm, λem = 572 nm). Included in the assay were control wells lacking any inhibitor. MMP activity was thus determined and expressed in relative fluorescence units (RFU). Percent inhibition was calculated from control wells and IC50 values were determined using GraphPad Prism 5.0 and are shown as mean ± SEM of at least three independent measurements, which were performed in triplicate.

MMP-9 [1] = target: T2, MMP-9 (Homo sapiens, UniProt P14780); assay: fluorometric MMP inhibition assay, MMP-9 catalytic domain; type: biochemical; settings: for IC50: catalytic domain, fluorometric assay, mean ± SEM of at least 3 experiments; for Ligand Efficiency MMP-9: calculated from IC50 values of Table 2
T2 construct: Catalytic domains of MMP-2, -8, -9, and -13 were obtained from Enzo Life Sciences; purchased Enzo Life Sciences
Method: as §1

MMP-2 = target: T3, MMP-2 (Homo sapiens, UniProt P08253); assay: fluorometric MMP inhibition assay, MMP-2 catalytic domain; type: biochemical; settings: for Ligand Efficiency MMP-2: calculated from IC50 values of Table 2; for IC50: catalytic domain, fluorometric assay, mean ± SEM of at least 3 experiments; for selectivity toward MMP-8 (MMP-2 inhibition versus MMP-8): ratio IC50 MMP-8 / IC50 MMP-2
T3 construct: Catalytic domains of MMP-2, -8, -9, and -13 were obtained from Enzo Life Sciences; purchased Enzo Life Sciences
Method: as §1

MMP-13 = target: T4, MMP-13 (Homo sapiens, UniProt P45452); assay: fluorometric MMP inhibition assay, MMP-13 catalytic domain; type: biochemical; settings: for Ligand Efficiency MMP-13: calculated from IC50 values of Table 2; for IC50: catalytic domain, fluorometric assay, mean ± SEM of at least 3 experiments; for Selectivity MMP-2/13 / Selectivity MMP-8/13 / Selectivity MMP-9/13: ratio of IC50 values of Table 2
T4 construct: Catalytic domains of MMP-2, -8, -9, and -13 were obtained from Enzo Life Sciences; purchased Enzo Life Sciences
Method: as §1

MMP-9 [2] = target: T2, MMP-9; parameters: method as in PMID 21714093; settings: inhibition values from literature; cited from earlier work

T3 sequence (P08253 110-446 limits assumed): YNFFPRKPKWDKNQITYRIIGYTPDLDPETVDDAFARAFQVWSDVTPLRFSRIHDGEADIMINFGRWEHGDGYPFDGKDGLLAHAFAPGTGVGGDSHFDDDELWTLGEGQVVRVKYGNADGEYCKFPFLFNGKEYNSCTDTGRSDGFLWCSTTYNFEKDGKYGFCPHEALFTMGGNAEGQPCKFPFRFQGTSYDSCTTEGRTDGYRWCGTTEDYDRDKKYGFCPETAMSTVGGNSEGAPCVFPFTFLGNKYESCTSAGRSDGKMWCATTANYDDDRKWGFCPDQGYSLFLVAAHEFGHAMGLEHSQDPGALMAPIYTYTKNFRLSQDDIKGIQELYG
T2 sequence (P14780 107-444 limits assumed): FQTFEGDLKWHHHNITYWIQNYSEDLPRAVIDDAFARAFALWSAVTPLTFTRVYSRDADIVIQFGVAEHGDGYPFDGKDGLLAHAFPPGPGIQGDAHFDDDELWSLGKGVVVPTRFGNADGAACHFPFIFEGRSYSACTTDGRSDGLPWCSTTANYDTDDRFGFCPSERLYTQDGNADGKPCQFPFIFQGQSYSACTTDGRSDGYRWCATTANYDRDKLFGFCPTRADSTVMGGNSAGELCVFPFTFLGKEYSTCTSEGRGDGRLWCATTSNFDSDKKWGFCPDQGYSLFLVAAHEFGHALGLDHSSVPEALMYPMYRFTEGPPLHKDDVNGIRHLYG
T1 sequence (P22894 100-262 limits assumed): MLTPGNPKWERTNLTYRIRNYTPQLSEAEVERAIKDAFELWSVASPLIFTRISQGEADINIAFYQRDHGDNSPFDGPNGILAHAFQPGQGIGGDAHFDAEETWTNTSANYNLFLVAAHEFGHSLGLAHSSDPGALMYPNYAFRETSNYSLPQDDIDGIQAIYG

Compound	Ligand Efficiency MMP-8 (MMP-8)	IC50 (MMP-8) [µM]	IC50 (MMP-9 [1]) [µM]	Ligand Efficiency MMP-2 (MMP-2)	IC50 (MMP-2) [µM]	Ligand Efficiency MMP-13 (MMP-13)	IC50 (MMP-13) [µM]	Selectivity MMP-2/13 (MMP-13)	Selectivity MMP-8/13 (MMP-13)	Selectivity MMP-9/13 (MMP-13)	melting point [°C]	Ligand Efficiency MMP-9 (MMP-9 [1])	selectivity toward MMP-8 (MMP-2 inhibition versus MMP-8) (MMP-2)	IC50 (MMP-9 [2]) [µM]
O=P(O)(O)C(Nc1nc2ccccc2s1)P(=O)(O)O [Compound 1, (Benzo[d]thiazol-2-amino)methyl-1,1-bisphosphonic acid]	0.30	84.3 ± 2.1	> 100	0.36	12.7 ± 0.8	0.38	6.5 ± 1.2	1.95	12.97	>15.4				
O=P(O)(O)C(Nc1nc2ccc(F)cc2s1)P(=O)(O)O [Compound 2, (6-fluorobenzo[d]thiazol-2-amino)methyl-1,1-bisphosphonic acid]	0.31	32.1 ± 1.9	26.5 ± 2.7	0.35	9 ± 0.9	0.37	4.25 ± 0.35	2.12	7.55	6.24	> 250	0.31		
O=P(O)(O)C(Nc1nc2ccc(Cl)cc2s1)P(=O)(O)O [Compound 3, (6-chlorobenzo[d]thiazol-2-amino)methyl-1,1-bisphosphonic acid]	0.33	14.6 ± 0.2	18.7 ± 2.9	0.38	2.64 ± 0.04	0.41	1.23 ± 0.12	2.15	11.87	15.20	> 250	0.32		
O=[N+]([O-])c1ccc2nc(NC(P(=O)(O)O)P(=O)(O)O)sc2c1 [Compound 4, (6-nitrobenzo[d]thiazol-2-amino)methyl-1,1-bisphosphonic acid]	0.31	9 ± 0.4	7.7 ± 1.1	0.33	4.5 ± 0.5	0.35	2.25 ± 0.15	2.00	4.00	3.42	> 250	0.32		
O=C(Nc1ccc2nc(NC(P(=O)(O)O)P(=O)(O)O)sc2c1)c1ccccc1 [Compound 5, (6-benzamidobenzo[d]thiazol-2-amino)methyl-1,1-bisphosphonic acid]	0.25	9 ± 0.3	6.3 ± 0.9	0.29	1.16 ± 0.18	0.30	0.67 ± 0.025	1.73	13.43	9.40	> 250	0.25	7.76	
O=C(Nc1ccc2nc(NC(P(=O)(O)O)P(=O)(O)O)sc2c1)c1ccc(Br)cc1 [Compound 6, (6-(4-bromobenzamido)benzo[d]thiazol-2-amino)methyl-1,1-bisphosphonic acid]	0.19	60 ± 2.6	> 100	0.22	13.8 ± 0.9	0.24	6.7 ± 0.5	2.06	8.96	>14.92	> 250			

Second part, led by results:

Ligand Efficiency MMP-8 (MMP-8)	IC50 (MMP-8) [µM]	IC50 (MMP-9 [1]) [µM]	Ligand Efficiency MMP-2 (MMP-2)	IC50 (MMP-2) [µM]	Ligand Efficiency MMP-13 (MMP-13)	IC50 (MMP-13) [µM]	Selectivity MMP-2/13 (MMP-13)	Selectivity MMP-8/13 (MMP-13)	Selectivity MMP-9/13 (MMP-13)	melting point [°C]	Ligand Efficiency MMP-9 (MMP-9 [1])	selectivity toward MMP-8 (MMP-2 inhibition versus MMP-8) (MMP-2)	Compound	IC50 (MMP-9 [2]) [µM]
0.23	6.7 ± 0.8	5.4 ± 1.1	0.27	0.98 ± 0.16	0.28	0.5 ± 0.01	1.96	13.40	10.80	> 250	0.23	6.84	O=C(Nc1ccc2nc(NC(P(=O)(O)O)P(=O)(O)O)sc2c1)c1ccc([N+](=O)[O-])cc1 [Compound 7, (6-(4-nitrobenzamido)benzo[d]thiazol-2-amino)methyl-1,1-bisphosphonic acid]	
0.23	10.8 ± 3.1	22 ± 8	0.27	2.4 ± 0.5	0.24	9.3 ± 0.7	0.26	1.16	2.37	> 250	0.22		O=C(Cc1ccccc1)Nc1ccc2nc(NC(P(=O)(O)O)P(=O)(O)O)sc2c1 [Compound 8, (6-(2-phenylacetamido)benzo[d]thiazol-2-amino)methyl-1,1-bisphosphonic acid]	
0.23	15 ± 5	13.6 ± 1.4	0.26	3 ± 0.4	0.23	11.5 ± 1.9	0.26	1.30	1.18	> 250	0.23		O=C(Nc1ccccc1)Nc1ccc2nc(NC(P(=O)(O)O)P(=O)(O)O)sc2c1 [Compound 9, (6-(3-phenylureido)benzo[d]thiazol-2-amino)methyl-1,1-bisphosphonic acid]	
0.23	12 ± 0.4	5.4 ± 1.6	0.26	1.69 ± 0.08	0.23	10.9 ± 2.4	0.16	1.10	0.50	> 250	0.24		O=C1c2ccccc2C(=O)N1c1ccc2nc(NC(P(=O)(O)O)P(=O)(O)O)sc2c1 [Compound 10, (6-(1,3-dioxoisoindolin-2-yl)benzo[d]thiazol-2-amino)methyl-1,1-bisphosphonic acid]	
0.23	54 ± 6	> 100	0.28	9.4 ± 2	0.23	61.9 ± 1.3	0.15	0.87	>1.62	> 250			CC(N)C(=O)Nc1ccc2nc(NC(P(=O)(O)O)P(=O)(O)O)sc2c1 (stereo not drawn) [Compound 11]	
0.31	21.3 ± 1.7	36.6 ± 1.8	0.35	4.7 ± 1.1	0.40	0.82 ± 0.06	5.73	25.98	44.63	> 250	0.29		O=P(O)(O)C(CNc1nc2ccc(Cl)cc2s1)P(=O)(O)O [Compound 12, (6-chlorobenzo[d]thiazol-2-amino)ethyl-1,1-bisphosphonic acid]	
0.35			0.38		0.34	0.6 ± 0.3	0.23	0.67	>166.67				O=P(O)(O)C(NS(=O)(=O)c1ccc(-c2ccccc2)cc1)P(=O)(O)O [ML115, reference compound]	> 100
